Assay results reported in patent US20260356856A1, “KRAS G12S AND G12C INHIBITORS” (MIRATI THERAPEUTICS, INC., priority 2023, published 2026).

Assays:
[1] = target: T1, KRas-mediated phosphorylation of ERK in MKN1 cells (Homo sapiens, UniProt P01116); experiment: Inhibition of KRas-mediated phosphorylation of ERK (HTRF), MKN1 cells; format: cell-based; conditions: MKN1 cells (KRas WT); HTRF pERK; 3 h incubation
T1 construct: pERK HTRF read-out
Method: Inhibition of KRas Phosphorylation of ERK (HTRF) by Exemplary Compounds of Formula (Ia) or (Ib)
Cisbio HTRF Advanced pERK Assay Catalog #64AERPEH • Cells: MKN1, PSN1 • Procedure: • 1. Day 1: Seed 6,000 cells/well −25 μl/well in 384-well white solid bottom plate; RPM1_10% FBS. Incubate overnight at 37 °C/5% CO2. • 2.

[2] = target: T2, KRas-mediated phosphorylation of ERK in H358 cells (Homo sapiens, UniProt P01116, G12C); experiment: Inhibition of KRas-mediated phosphorylation of ERK (HTRF), H358 cells; format: cell-based; conditions: HTRF pERK, 3 h incubation
T2 construct: pERK HTRF read-out
T2 sequence (P01116 1-188 isoform P01116-2 G12C): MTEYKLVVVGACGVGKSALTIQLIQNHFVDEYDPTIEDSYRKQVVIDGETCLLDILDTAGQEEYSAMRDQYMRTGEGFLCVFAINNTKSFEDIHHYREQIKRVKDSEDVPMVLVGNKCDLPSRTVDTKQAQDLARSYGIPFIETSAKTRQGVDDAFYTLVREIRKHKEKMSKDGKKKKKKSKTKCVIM

[3] = target: T3, KRas G12S (Homo sapiens, UniProt P01116, G12S); experiment: KRas binding assay, TR-FRET displacement of Cy5 labelled tracer; conditions: 60-minute incubation at room temperature, 1% DMSO, pH 7.5
T3 construct: Biotinylated KRas (corresponding to amino acids 1-169, produced at Accelegan Inc.); biotin (biotinylated); purchased Accelegan Inc
T3 sequence (P01116 1-169 isoform P01116-2 G12S): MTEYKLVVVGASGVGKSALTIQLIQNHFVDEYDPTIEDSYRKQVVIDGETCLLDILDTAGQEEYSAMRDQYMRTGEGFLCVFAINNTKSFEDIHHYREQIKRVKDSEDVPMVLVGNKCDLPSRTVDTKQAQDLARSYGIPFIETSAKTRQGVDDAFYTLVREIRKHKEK
How it was run: (§1)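 TR-FRET tracer-displacement readout after 60 min at room temperature, using KRas residues 1-169 (biotinylated) with terbium streptavidin and a Cy5 tracer. Buffer: 50 mM HEPES pH 7.5, 5 mM MgCl2, 0.005% Tween-20, 1 mM DTT, 1% DMSO final. IC50 from 4-parameter fit of POC data.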

[4] = target: T4, KRas WT (Homo sapiens, UniProt P01116); experiment: as above; conditions: 60-minute incubation at room temperature, 1% DMSO, pH 7.5
T4 construct: Biotinylated KRas (corresponding to amino acids 1-169, produced at Accelegan Inc.); biotin (biotinylated); purchased Accelegan Inc
T4 sequence (P01116 1-169 isoform P01116-2): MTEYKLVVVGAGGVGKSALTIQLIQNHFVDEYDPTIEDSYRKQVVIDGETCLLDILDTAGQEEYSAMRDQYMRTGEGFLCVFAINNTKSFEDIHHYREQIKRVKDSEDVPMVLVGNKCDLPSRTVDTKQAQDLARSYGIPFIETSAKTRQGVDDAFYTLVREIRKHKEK
How it was run: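 Truncated KRas (1-169), biotinylated, Tb-streptavidin donor; one-hour room-temperature incubation; IC50 by four-parameter curve fitting.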

[5] = target: T5, KRas G12C (Homo sapiens, UniProt P01116, G12C); experiment: as above; conditions: 60-minute incubation at room temperature, 1% DMSO, pH 7.5
T5 construct: Biotinylated KRas (corresponding to amino acids 1-169, produced at Accelegan Inc.); biotin (biotinylated); purchased Accelegan Inc
T5 sequence (P01116 1-169 isoform P01116-2 G12C): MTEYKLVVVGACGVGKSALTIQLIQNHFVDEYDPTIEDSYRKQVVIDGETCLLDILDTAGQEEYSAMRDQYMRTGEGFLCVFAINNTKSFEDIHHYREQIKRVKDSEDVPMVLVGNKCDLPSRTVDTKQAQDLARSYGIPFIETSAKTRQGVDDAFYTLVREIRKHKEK
How it was run: as §1

[6] = target: T6, KRas-mediated phosphorylation of ERK in A549 cells (Homo sapiens, UniProt P01116, G12S); experiment: Inhibition of KRas-mediated phosphorylation of ERK (HTRF), A549 cells; format: cell-based; conditions: HTRF pERK, 3 h incubation
T6 construct: pERK HTRF read-out
T6 sequence (P01116 1-188 isoform P01116-2 G12S): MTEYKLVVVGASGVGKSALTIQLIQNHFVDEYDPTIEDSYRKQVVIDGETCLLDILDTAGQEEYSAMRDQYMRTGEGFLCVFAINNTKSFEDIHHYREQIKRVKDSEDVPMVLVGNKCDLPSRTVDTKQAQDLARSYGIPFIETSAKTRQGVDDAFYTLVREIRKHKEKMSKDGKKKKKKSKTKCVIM

T1 sequence (P01116 1-188 isoform P01116-2): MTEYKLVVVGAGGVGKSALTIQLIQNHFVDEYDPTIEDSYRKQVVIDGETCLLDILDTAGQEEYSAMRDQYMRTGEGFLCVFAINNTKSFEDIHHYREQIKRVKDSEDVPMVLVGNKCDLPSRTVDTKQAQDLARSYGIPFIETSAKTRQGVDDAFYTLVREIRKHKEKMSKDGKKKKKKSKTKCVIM

Structure (SMILES)	IC50 [1]	IC50 [2]	IC50 [3]	IC50 [4]	IC50 [5]	IC50 [6]
CCc1c(F)ccc2cc(O)cc(-c3ncc4c(N5CCC(C(=O)N(C)C(=O)COC)CC5)nc(OC[C@@]56CCCN5C[C@H](F)C6)nc4c3F)c12 [Example 209, 1-(7-(8-ethyl-7-fluoro-3-hydroxynaphthalen-1-yl)-8-fluoro-2-(((2R,7aS)-2-fluorotetrahydro-1H-pyrrolizin-7a(5H)-yl)methoxy)pyrido[4,3-d]pyrimidin-4-yl)-N-(2-methoxyacetyl)-N-methylpiperidine-4-carboxamide]	1110 nM	1460 nM	165 nM	496 nM	168 nM	281 nM
CCc1c(F)ccc2cc(O)cc(-c3ncc4c(N5C[C@H]6C[C@@H](C(=O)n7ccc(C)n7)[C@H]6C5)nc(OC[C@@]56CCCN5C[C@H](F)C6)nc4c3F)c12 [Example 210, ((1S,5S,6R)-3-(7-(8-ethyl-7-fluoro-3-hydroxynaphthalen-1-yl)-8-fluoro-2-(((2R,7aS)-2-fluorotetrahydro-1H-pyrrolizin-7a(5H)-yl)methoxy)pyrido[4,3-d]pyrimidin-4-yl)-3-azabicyclo[3.2.0]heptan-6-yl)(3-methyl-1H-pyrazol-1-yl)methanone]	5020 nM	8660 nM	1290 nM	2730 nM	2250 nM	741 nM
CCc1c(F)ccc2cc(O)cc(-c3ncc4c(N5C[C@@H]6C[C@H](C(=O)n7ccc(C)n7)[C@@H]6C5)nc(OC[C@@]56CCCN5C[C@H](F)C6)nc4c3F)c12 [Example 211, ((1R,5R,6S)-3-(7-(8-ethyl-7-fluoro-3-hydroxynaphthalen-1-yl)-8-fluoro-2-(((2R,7aS)-2-fluorotetrahydro-1H-pyrrolizin-7a(5H)-yl)methoxy)pyrido[4,3-d]pyrimidin-4-yl)-3-azabicyclo[3.2.0]heptan-6-yl)(3-methyl-1H-pyrazol-1-yl)methanone]	567 nM	518 nM	15 nM	314 nM	61 nM	23 nM
CCc1c(F)ccc2cc(O)cc(-c3ncc4c(N5CCC(C(=O)NC(C)=O)CC5)nc(OC[C@@]56CCCN5C[C@H](F)C6)nc4c3F)c12 [Example 212, N-acetyl-1-(7-(8-ethyl-7-fluoro-3-hydroxynaphthalen-1-yl)-8-fluoro-2-(((2R,7aS)-2-fluorotetrahydro-1H-pyrrolizin-7a(5H)-yl)methoxy)pyrido[4,3-d]pyrimidin-4-yl)piperidine-4-carboxamide]	868 nM	4600 nM	371 nM	165 nM	623 nM	> 10000 nM
Cc1ccn(C(=O)C2CCCN(c3nc(OC[C@@]45CCCN4C[C@H](F)C5)nc4c(F)c(-c5csc6ccc(N)nc56)c(Cl)cc34)CC2)n1 (stereo partly drawn) [Example 215, (1-(7-(5-aminothieno[3,2-b]pyridin-3-yl)-6-chloro-8-fluoro-2-(((2R,7aS)-2-fluorotetrahydro-1H-pyrrolizin-7a(5H)-yl)methoxy)quinazolin-4-yl)azepan-4-yl)(3-methyl-1H-pyrazol-1-yl)methanone]	3920 nM	> 10000 nM	169 nM	11400 nM	2400 nM	242 nM
COC(=O)CCCN(C)c1nc(OC[C@@]23CCCN2C[C@H](F)C3)nc2c(F)c(-c3ccc(F)c4sc(N)c(C#N)c34)c(Cl)cc12 [Example 217, methyl 4-((7-(2-amino-3-cyano-7-fluorobenzo[b]thiophen-4-yl)-6-chloro-8-fluoro-2-(((2R,7aS)-2-fluorotetrahydro-1H-pyrrolizin-7a(5H)-yl)methoxy)quinazolin-4-yl)(methyl)amino)butanoate]	763 nM	296 nM	7 nM	9 nM	5 nM	6880 nM
CN(C)CCc1ccn(C(=O)C2CCCN(c3nc(OC[C@@]45CCCN4C[C@H](F)C5)nc4c(F)c(-c5ccc(F)c6sc(N)c(C#N)c56)c(Cl)cc34)CC2)n1 (stereo partly drawn) [Example 219, 2-amino-4-(6-chloro-4-(4-(3-(2-(dimethylamino)ethyl)-1H-pyrazole-1-carbonyl)azepan-1-yl)-8-fluoro-2-(((2R,7aS)-2-fluorotetrahydro-1H-pyrrolizin-7a(5H)-yl)methoxy)quinazolin-7-yl)-7-fluorobenzo[b]thiophene-3-carbonitrile]	431 nM	16 nM	4 nM	10 nM	3 nM	12 nM
CCc1c(F)ccc2cc(O)cc(-c3ncc4c(N(C)CCCC(=O)N(C)C(C)=O)nc(OC[C@@]56CCCN5C[C@H](F)C6)nc4c3F)c12 [Example 221, N-acetyl-4-((7-(8-ethyl-7-fluoro-3-hydroxynaphthalen-1-yl)-8-fluoro-2-(((2R,7aS)-2-fluorotetrahydro-1H-pyrrolizin-7a(5H)-yl)methoxy)pyrido[4,3-d]pyrimidin-4-yl)(methyl)amino)-N-methylbutanamide]	409 nM	485 nM	11 nM	101 nM	43 nM	26 nM
Cc1ccn(C(=O)C2CCCN(c3nc(OC[C@@]45CCCN4C[C@H](F)C5)nc4c(F)c(-c5nc(N)ccc5C)c(Cl)cc34)CC2)n1 (stereo partly drawn) [Example 222, (1-(7-(6-amino-3-methylpyridin-2-yl)-6-chloro-8-fluoro-2-(((2R,7aS)-2-fluorotetrahydro-1H-pyrrolizin-7a(5H)-yl)methoxy)quinazolin-4-yl)azepan-4-yl)(3-methyl-1H-pyrazol-1-yl)methanone]	8260 nM	> 10000 nM	3410 nM	29600 nM	18300 nM	1970 nM

These reach a lower IC50 [1]. Values come first.

IC50 [1]	IC50 [2]	IC50 [3]	IC50 [4]	IC50 [5]	IC50 [6]	Structure (SMILES)
387 nM	10 nM	5 nM	8 nM	< 2 nM	1180 nM	CN(CCNC(=O)n1nccn1)c1nc(OC[C@@]23CCCN2C[C@H](F)C3)nc2c(F)c(-c3ccc(F)c4sc(N)c(C#N)c34)c(Cl)cc12 [Example 213, N-(2-((7-(2-amino-3-cyano-7-fluorobenzo[b]thiophen-4-yl)-6-chloro-8-fluoro-2-(((2R,7aS)-2-fluorotetrahydro-1H-pyrrolizin-7a(5H)-yl)methoxy)quinazolin-4-yl)(methyl)amino)ethyl)-2H-1,2,3-triazole-2-carboxamide]
120 nM	93 nM	13 nM	14 nM	8 nM	661 nM	CN(CCCC(=O)Nc1ccccn1)c1nc(OC[C@@]23CCCN2C[C@H](F)C3)nc2c(F)c(-c3ccc(F)c4sc(N)c(C#N)c34)c(Cl)cc12 [Example 214, 4-((7-(2-amino-3-cyano-7-fluorobenzo[b]thiophen-4-yl)-6-chloro-8-fluoro-2-(((2R,7aS)-2-fluorotetrahydro-1H-pyrrolizin-7a(5H)-yl)methoxy)quinazolin-4-yl)(methyl)amino)-N-(pyridin-2-yl)butanamide]
71 nM	5 nM	3 nM	22 nM	4 nM	2 nM	N#Cc1c(N)sc2c(F)ccc(-c3c(Cl)cc4c(N5CCC[C@H](C(=O)n6ccc(C7CC7)n6)CC5)nc(OC[C@@]56CCCN5C[C@H](F)C6)nc4c3F)c12 [Example 216, 2-amino-4-(6-chloro-4-((S)-4-(3-cyclopropyl-1H-pyrazole-1-carbonyl)azepan-1-yl)-8-fluoro-2-(((2R,7aS)-2-fluorotetrahydro-1H-pyrrolizin-7a(5H)-yl)methoxy)quinazolin-7-yl)-7-fluorobenzo[b]thiophene-3-carbonitrile]
322 nM	15 nM	16 nM	83 nM	3 nM	175 nM	CN(CCCC(=O)Oc1ccccc1F)c1nc(OC[C@@]23CCCN2C[C@H](F)C3)nc2c(F)c(-c3ccc(F)c4sc(N)c(C#N)c34)c(Cl)cc12 [Example 218, 2-fluorophenyl 4-((7-(2-amino-3-cyano-7-fluorobenzo[b]thiophen-4-yl)-6-chloro-8-fluoro-2-(((2R,7aS)-2-fluorotetrahydro-1H-pyrrolizin-7a(5H)-yl)methoxy)quinazolin-4-yl)(methyl)amino)butanoate]
258 nM	449 nM	153 nM	160 nM	209 nM	336 nM	CC(C)(C)c1ccn(C(=O)C2CCCN(c3nc(OC[C@@]45CCCN4C[C@H](F)C5)nc4c(F)c(-c5ccc(F)c6sc(N)c(C#N)c56)c(Cl)cc34)CC2)n1 (stereo partly drawn) [Example 220, 2-amino-4-(4-(4-(3-(tert-butyl)-1H-pyrazole-1-carbonyl)azepan-1-yl)-6-chloro-8-fluoro-2-(((2R,7aS)-2-fluorotetrahydro-1H-pyrrolizin-7a(5H)-yl)methoxy)quinazolin-7-yl)-7-fluorobenzo[b]thiophene-3-carbonitrile]
